How the values were obtained:
[1] = tested on: PC3 human prostate cancer cells; assay: CB.17 SCID mouse xenograft model of human prostate cancer; type: in vivo; conditions: 2 mg/kg i.p. twice daily, 5 days on 2 days off
Experimental: Cell Lines. Human prostate cancer cell line PC3 (ATCC CRL-1435) was obtained from American Type Culture Collection (Rockville, Md.) and maintained as a continuous cell line in DMEM supplemented with 10% fetal calf serum (FCS), 4 mm glutamine, 100 units/ml penicillin G, and […] streptomycin sulfate. All of the tissue culture reagents were obtained from Life Technologies, Inc. Inc. (Gaithersburg, Md.). Mice. Female CB.17 SCID mice were obtained from Taconic (Germantown, N.Y.) and housed in a specific-pathogen-free room located in a secure indoor facility with controlled temperature, humidity, and noise levels. Mice were housed in micro-isolator cages and fed with autoclaved rodent chow. Water was also autoclaved and supplemented with trimethoprim/sulfamethoxazol 3 days a week. The animal protocol used in this study was approved by the Drug Discovery Enterprises Animal Care and Use Committee (IACUC), and all of the animal care procedures conformed to the Guide for the Care and Use of Laboratory Animals (National Research Council, National Academy Press, Washington D.C. 1996). […] The size of subcutaneous tumors were measured on day 16 and day 18 to evaluate the ability of AP-8 to inhibit tumor growth in this SCID mouse xenograft model of prostate cancer. Tumor volumes were calculated using the formula for the volume of a prolate spheroid, V=4/3×3.14×length/2×width/2×depth/2.

[2] = tested on: mammary tumors of MMTV/neu transgenic mice; assay: MMTV/neu transgenic mouse model of HER2+ breast cancer; type: in vivo; conditions: 9-week observation; AP-8 2 mg/kg i.p. twice daily; paclitaxel 6.7 mg/kg; gemcitabine 33.7 mg/kg
Source text: The predictive value of genetically engineered mouse (GEM) models to predict the clinical effectiveness of anti-cancer drugs is well established (Richmond A, Su Y. Mouse xenograft models vs GEM models for human cancer therapeutics. Dis Model Mech. 2008; 1(2-3):78-82. doi:10.1241-2/dmm.0.000976). We used the transgenic mouse model of HER2+ chemotherapy-resistant breast cancer to examine the in vivo anti-cancer activity of AP-8. Overexpression of the wild type Neu in the mammary glands of transgenic mice induces metastatic breast cancer. Accordingly, in the MMTV/Neu transgenic strain, the wild-type neu is overexpressed in the mammary gland under the control of the MMTV long terminal repeat. This animal model has been used to analyze the efficacy of new therapeutic approaches to prevent or treat Her2/neu overexpressing malignancies (Uckun, Dibirdik). MMTV/Neu transgenic mice [FVB/N-TgN(MMTV/neu)202MUL; Jackson Laboratory, Bar Harbor, Me.] were bred to produce multiple litters in a controlled SPF environment (12 h light/12 h-dark photoperiod, 22±1° C., 60±10% relative humidity). All mice were housed in microisolator cages (Lab Products, Inc., Maywood, N.Y., USA) containing autoclaved bedding in a controlled specific pathogen-free (SPF) environment (12 h light/12 h-dark photoperiod, 22±1° C., 60±10% relative humidity). Animal studies were approved by the institutional Animal Care and Use Committee of Drug Discovery Enterprises and all animal care procedures conformed to the Guide for the Care and Use of Laboratory Animals of the National Research Council. The genotype of mice was confirmed by multiplex polymerase chain reaction (PCR) tests as previously reported (F. M. Uckun et al., 2007, Bioorganic Med. Chem. 15:800-14; I. Dibirdik et al., 2010, J Nanomed and Nanotechnol. 1:001-4).
Neu transgenic mice carrying one or more tumors were randomly placed in the study. For the evaluation of tumor kinetics, tumor-bearing mice were randomly assigned to either vehicle control or treatment groups. Tumor growth was determined by the measurement of tumors with a caliper in three dimensions three days a week and expressed as tumor volume in cubic millimeters (mm^3). Tumor volumes were calculated using the formula for the volume of a prolate spheroid, V=4/3×3.14×length/2×width/2×depth/2. Due to the large heterogeneity in transgenic tumor volumes on day 0, tumor growth for each mouse was normalized to the starting volume for that particular tumor. Therefore, each mouse also served as its own control, and the tumor growth curves were generated to show the rate of change in tumor volumes.
AP-8 (50 μg˜2 mg/kg in 50 μL DMSO as vehicle) (10 mice, 12 target mammary tumors, Initial average tumor volume=787±125 mm^3) was administered by twice daily intraperitoneal injections on 5 consecutive days per week. Paclitaxel (10 mice, 13 target mammary tumors, Initial average tumor volume=554±79 mm^3) was administered intraperitoneally on days 1, 3, and 5 of each week at a dose level of 6.7 mg/kg ([…]). Gemcitabine (13 mice, 18 target mammary tumors, Initial average tumor volume=549±60 mm^3) was administered intraperitoneally on days 1 and 8 every 4 weeks at a dose level of 33.7 mg/kg (˜1 g/m^2). Control mice (8 mice, 10 mammary tumors, Initial average tumor volume=293±61 mm^3) were treated by twice daily intraperitoneal injections of vehicle alone (50 μL DMSO) on 5 consecutive days per week. […]

CCC1CN2CCC1CC2C(Oc1cc(OC(c2ccnc3ccc(OC)cc23)C2CC3CCN2CC3CC)nc(OC(c2ccnc3ccc(OC)cc23)C2CC3CCN2CC3CC)n1)c1ccnc2ccc(OC)cc12 (stereo not drawn) [AP-8, 2,4,6-Tri (9-O-dihydroquinidinyl)pyrimidine]
tumor progression [1]: significantly slowed down the tumor progression
average tumor volume ([1]; day 18, from day 7): 45.1±7.8 mm^3
tumor shrinkage and tumor growth [2]: caused shrinkage of the tumor, completely arrested the tumor growth for 4 weeks, and markedly delayed the tumor progression between 4 weeks and 9 weeks

From patent publication US11066421B1, “Synthetic cinchona alkaloids against cancer” (Ares Pharmaceuticals, LLC, priority 2021, dated 2021)
